Measurements as given in US10231954B2, “Neurodegenerative therapies” (LYTIX BIOPHARMA AS, priority 2014, dated 2019).
Where two headings read alike, the source gives them in different places.

Tests used:
[1] = target: RSK1 (Homo sapiens, UniProt Q15418); assay: Kinase profiling RSK1; format: biochemical; conditions: for remaining activity at 100 µM: read-out: residual kinase activity, RSK1
Description: (§1) Any value less that 25 is considered to be highly significant inhibition.

[2] = target: T1, PDK1 (Homo sapiens, UniProt O15530); assay: Kinase profiling PDK1; format: biochemical; conditions: for remaining activity at 100 µM: read-out: residual kinase activity, PDK1
T1 sequence (O15530 1-556): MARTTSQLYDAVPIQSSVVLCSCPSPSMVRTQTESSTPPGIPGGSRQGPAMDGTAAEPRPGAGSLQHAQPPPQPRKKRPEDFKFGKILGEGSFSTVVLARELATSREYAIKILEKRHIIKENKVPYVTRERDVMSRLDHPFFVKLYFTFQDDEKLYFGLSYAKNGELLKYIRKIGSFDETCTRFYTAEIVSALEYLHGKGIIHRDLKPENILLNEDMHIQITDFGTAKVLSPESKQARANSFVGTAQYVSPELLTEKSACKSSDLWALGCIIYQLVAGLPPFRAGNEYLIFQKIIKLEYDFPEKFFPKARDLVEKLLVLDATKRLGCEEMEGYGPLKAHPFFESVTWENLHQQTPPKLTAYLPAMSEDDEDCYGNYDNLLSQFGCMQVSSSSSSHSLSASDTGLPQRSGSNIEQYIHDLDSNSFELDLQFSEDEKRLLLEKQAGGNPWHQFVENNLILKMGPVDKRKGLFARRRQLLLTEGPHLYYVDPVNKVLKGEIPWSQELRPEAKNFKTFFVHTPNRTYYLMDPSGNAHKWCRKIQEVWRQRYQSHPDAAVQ
Description: as §1

[3] = test system: AMPK (hum); assay: Kinase profiling AMPK (hum); format: biochemical, human; conditions: 100 micromolar inhibitor concentration; 100 is no change
Description: as §1

[4] = target: MARK3 (Homo sapiens, UniProt P27448); assay: Kinase profiling MARK3; format: biochemical; conditions: for remaining activity at 100 µM: read-out: residual kinase activity, MARK3
Chain of MARK3 (P27448 whole entry, species assumed): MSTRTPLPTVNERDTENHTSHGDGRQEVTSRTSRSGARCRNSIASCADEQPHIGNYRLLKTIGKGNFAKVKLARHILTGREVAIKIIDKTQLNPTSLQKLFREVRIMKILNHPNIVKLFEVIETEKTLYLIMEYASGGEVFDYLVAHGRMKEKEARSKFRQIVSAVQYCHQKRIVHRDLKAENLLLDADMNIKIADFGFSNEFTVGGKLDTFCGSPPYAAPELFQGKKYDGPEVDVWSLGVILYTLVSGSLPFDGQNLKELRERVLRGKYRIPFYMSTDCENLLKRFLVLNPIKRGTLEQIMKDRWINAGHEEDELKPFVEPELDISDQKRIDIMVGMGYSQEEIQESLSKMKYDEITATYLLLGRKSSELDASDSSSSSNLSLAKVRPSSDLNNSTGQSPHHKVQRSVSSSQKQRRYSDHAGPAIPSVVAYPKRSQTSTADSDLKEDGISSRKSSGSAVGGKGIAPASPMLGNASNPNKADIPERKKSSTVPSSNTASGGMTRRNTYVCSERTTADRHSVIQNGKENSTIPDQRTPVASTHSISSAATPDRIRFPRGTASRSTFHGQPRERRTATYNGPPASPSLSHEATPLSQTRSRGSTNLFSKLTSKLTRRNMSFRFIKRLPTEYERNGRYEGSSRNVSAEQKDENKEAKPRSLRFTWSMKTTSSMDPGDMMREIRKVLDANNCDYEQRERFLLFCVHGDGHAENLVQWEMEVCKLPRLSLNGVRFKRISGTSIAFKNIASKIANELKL
Description: as §1

[5] = target: DYRK1A (Homo sapiens, UniProt Q13627); assay: DYRK 1A assay (kinase profiling); format: biochemical; conditions: for remaining activity at 100 µM: read-out: residual kinase activity, DYRK1A
Description: Assays are stopped by addition of 5 μl of 0.5 M (3%) orthophosphoric acid and then harvested onto P81 Unifilter plates with a wash buffer of 50 mM orthophosphoric acid.
as §1

[6] = target: T2, TBK1 (Homo sapiens, UniProt Q9UHD2); assay: Kinase profiling TBK1; format: biochemical; conditions: for remaining activity at 100 µM: read-out: residual kinase activity, TBK1
T2 sequence (Q9UHD2 1-729): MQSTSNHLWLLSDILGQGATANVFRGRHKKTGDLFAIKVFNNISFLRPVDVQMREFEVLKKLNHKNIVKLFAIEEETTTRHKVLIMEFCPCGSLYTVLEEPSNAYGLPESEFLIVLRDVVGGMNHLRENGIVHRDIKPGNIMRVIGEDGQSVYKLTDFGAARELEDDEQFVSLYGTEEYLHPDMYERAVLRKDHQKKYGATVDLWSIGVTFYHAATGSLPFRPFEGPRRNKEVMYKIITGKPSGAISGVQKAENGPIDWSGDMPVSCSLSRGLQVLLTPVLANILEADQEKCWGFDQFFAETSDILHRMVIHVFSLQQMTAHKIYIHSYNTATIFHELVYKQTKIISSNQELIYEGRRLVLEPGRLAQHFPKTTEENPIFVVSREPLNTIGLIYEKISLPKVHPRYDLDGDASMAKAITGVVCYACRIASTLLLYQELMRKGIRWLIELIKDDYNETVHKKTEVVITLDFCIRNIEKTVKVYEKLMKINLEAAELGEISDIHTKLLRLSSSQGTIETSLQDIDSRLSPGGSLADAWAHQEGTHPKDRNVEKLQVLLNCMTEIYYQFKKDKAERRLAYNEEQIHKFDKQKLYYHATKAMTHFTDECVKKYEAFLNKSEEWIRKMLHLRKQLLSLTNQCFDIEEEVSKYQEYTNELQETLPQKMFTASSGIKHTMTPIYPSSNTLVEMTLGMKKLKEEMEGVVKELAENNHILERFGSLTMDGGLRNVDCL
Description: as §1

[7] = target: PIM1 (Homo sapiens, UniProt P11309); assay: Kinase profiling PIM1; format: biochemical; conditions: for remaining activity at 100 µM: read-out: residual kinase activity, PIM1
Chain of PIM1 (P11309 whole entry, species assumed): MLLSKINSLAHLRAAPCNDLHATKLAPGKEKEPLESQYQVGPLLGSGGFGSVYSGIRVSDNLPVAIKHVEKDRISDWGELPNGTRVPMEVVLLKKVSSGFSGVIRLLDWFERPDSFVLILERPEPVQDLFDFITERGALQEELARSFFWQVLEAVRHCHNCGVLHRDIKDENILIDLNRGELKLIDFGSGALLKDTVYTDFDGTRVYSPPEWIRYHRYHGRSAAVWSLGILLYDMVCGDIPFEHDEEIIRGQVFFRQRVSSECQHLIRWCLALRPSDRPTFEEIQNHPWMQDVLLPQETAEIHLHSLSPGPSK
Description: as §1

[8] = target: EF2K (Homo sapiens, UniProt O00418); assay: Kinase profiling EF2K; format: biochemical; conditions: for remaining activity at 100 µM: read-out: residual kinase activity, EF2K
Description: as §1

[9] = target: HIPK2 (Homo sapiens, UniProt Q9H2X6); assay: Kinase profiling HIPK2; format: biochemical; conditions: for remaining activity at 100 µM: read-out: residual kinase activity, HIPK2
Chain of HIPK2 (Q9H2X6 whole entry, species assumed): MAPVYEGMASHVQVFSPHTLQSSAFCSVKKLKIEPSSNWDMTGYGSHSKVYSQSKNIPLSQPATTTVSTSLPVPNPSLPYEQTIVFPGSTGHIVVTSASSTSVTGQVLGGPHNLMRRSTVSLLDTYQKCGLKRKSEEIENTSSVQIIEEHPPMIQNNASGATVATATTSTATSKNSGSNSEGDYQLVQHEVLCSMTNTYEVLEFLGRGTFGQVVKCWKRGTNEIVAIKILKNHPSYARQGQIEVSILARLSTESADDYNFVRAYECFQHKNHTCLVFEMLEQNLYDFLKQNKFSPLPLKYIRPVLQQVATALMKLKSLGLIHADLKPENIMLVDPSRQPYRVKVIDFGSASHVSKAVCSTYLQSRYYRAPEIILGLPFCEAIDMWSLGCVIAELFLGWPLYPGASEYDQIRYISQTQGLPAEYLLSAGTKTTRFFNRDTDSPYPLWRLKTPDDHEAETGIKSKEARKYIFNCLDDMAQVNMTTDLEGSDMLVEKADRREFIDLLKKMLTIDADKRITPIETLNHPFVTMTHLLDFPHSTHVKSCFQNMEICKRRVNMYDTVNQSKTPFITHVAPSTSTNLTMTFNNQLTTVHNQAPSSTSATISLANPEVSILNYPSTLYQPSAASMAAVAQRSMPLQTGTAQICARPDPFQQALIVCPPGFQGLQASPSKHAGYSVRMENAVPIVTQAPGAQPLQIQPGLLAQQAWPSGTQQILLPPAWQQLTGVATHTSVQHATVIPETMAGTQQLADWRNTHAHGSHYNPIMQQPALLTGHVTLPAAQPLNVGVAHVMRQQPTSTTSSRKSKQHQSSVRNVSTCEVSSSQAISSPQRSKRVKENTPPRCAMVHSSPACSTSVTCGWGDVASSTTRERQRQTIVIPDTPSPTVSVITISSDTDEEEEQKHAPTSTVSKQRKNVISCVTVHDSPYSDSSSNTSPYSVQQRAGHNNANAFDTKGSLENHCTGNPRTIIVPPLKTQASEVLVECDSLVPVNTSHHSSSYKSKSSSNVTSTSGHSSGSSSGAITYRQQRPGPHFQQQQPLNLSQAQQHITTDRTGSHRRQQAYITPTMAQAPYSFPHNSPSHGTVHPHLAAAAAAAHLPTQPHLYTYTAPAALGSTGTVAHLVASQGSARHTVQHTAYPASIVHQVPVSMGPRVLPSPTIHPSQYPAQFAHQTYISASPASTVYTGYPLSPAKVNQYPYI
Description: as §1

[10] = target: T3, IRAK4 (Homo sapiens, UniProt Q9NWZ3); assay: Kinase profiling IRAK4; format: biochemical; conditions: for remaining activity at 100 µM: read-out: residual kinase activity, IRAK4
T3 sequence (Q9NWZ3 1-460): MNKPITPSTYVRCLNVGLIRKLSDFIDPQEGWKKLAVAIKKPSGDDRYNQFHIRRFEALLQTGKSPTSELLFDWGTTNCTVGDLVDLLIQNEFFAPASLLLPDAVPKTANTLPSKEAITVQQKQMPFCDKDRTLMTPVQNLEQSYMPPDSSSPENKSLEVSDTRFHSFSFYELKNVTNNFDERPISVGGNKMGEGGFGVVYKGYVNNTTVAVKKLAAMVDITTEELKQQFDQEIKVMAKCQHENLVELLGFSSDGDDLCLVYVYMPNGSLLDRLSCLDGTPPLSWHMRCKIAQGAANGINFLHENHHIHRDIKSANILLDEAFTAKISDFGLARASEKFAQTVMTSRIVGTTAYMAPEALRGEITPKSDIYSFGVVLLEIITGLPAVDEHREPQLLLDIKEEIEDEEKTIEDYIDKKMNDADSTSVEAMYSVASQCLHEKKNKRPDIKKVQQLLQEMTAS
Description: as §1

[11] = target: Src (Homo sapiens, UniProt P12931); assay: Kinase profiling Src; format: biochemical; conditions: for remaining activity at 100 µM: read-out: residual kinase activity, Src
Chain of Src (P12931 whole entry, species assumed): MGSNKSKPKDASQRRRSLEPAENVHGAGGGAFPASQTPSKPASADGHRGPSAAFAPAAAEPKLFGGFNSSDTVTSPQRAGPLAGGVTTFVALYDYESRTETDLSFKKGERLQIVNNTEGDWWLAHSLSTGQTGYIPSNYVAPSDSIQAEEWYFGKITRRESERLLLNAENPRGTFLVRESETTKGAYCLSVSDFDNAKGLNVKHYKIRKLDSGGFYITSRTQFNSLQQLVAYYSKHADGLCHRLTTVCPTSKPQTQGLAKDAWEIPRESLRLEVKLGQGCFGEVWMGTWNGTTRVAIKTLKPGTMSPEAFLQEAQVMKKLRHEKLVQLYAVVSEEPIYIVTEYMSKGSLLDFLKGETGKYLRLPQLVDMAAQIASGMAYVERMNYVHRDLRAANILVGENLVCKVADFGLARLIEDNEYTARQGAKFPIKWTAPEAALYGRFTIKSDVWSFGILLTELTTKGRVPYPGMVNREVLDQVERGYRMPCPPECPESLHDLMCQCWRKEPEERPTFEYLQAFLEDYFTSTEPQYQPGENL
Description: as §1

[12] = target: Lck (Homo sapiens, UniProt P06239); assay: Kinase profiling Lck; format: biochemical; conditions: for remaining activity at 100 µM: read-out: residual kinase activity, Lck
Chain of Lck (P06239 whole entry, species assumed): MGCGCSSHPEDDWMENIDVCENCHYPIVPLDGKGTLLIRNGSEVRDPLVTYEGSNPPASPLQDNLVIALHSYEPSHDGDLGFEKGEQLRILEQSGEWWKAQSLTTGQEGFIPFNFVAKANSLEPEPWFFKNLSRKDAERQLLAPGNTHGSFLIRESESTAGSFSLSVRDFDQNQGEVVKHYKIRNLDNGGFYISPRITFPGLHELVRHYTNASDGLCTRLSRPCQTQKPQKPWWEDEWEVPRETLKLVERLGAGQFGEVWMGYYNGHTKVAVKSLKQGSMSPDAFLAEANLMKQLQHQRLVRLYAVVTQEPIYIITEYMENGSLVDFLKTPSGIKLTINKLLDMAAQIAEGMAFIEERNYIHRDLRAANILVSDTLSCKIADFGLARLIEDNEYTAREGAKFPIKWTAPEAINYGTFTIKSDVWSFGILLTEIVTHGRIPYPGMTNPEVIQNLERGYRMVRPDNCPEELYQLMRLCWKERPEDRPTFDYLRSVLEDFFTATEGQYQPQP
Description: as §1

[13] = target: SYK (Homo sapiens, UniProt P43405); assay: Kinase profiling SYK; format: biochemical; conditions: for remaining activity at 100 µM: read-out: residual kinase activity, SYK
Description: as §1

[14] = test system: VEG-FR; assay: Kinase profiling VEG-FR; format: biochemical; conditions: 100 micromolar inhibitor concentration; 100 is no change
Description: as §1

[15] = 100 micromolar inhibitor concentration, 100 is no change

Chain of RSK1 (Q15418 whole entry, species assumed): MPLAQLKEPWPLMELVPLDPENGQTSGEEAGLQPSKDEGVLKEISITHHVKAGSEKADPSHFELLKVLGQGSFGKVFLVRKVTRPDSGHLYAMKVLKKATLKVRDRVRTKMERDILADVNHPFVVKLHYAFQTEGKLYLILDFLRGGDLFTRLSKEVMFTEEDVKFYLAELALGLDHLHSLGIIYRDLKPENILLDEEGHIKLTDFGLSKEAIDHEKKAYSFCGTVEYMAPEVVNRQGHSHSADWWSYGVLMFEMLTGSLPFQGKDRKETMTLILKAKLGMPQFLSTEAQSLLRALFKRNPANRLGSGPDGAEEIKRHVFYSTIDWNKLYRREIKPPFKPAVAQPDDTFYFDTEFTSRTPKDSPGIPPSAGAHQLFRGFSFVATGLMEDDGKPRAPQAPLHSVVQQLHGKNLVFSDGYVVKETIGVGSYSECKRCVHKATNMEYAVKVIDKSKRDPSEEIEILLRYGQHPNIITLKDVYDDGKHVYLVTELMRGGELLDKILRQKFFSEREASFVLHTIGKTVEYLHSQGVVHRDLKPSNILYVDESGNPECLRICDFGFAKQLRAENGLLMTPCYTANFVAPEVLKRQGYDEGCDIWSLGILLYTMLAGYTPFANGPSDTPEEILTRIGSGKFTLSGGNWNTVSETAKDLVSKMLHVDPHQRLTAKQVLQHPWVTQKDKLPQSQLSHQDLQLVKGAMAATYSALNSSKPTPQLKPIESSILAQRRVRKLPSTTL

## CC(=O)Nc1nc2cc(F)ccc2s1 [Compound 03-77]
[1]; [15]
  remaining activity at 100 µM: 72%
[2]; [15]
  remaining activity at 100 µM: 91%
[3]
  residual kinase activity, AMPK (hum): 80
[4]; [15]
  remaining activity at 100 µM: 58%
[5]; [15]
  remaining activity at 100 µM: 7%
[6]; [15]
  remaining activity at 100 µM: 74%
[7]; [15]
  remaining activity at 100 µM: 19%
[8]; [15]
  remaining activity at 100 µM: 99%
[9]; [15]
  remaining activity at 100 µM: 22%
[10]; [15]
  remaining activity at 100 µM: 43%
[11]; [15]
  remaining activity at 100 µM: 80%
[12]; [15]
  remaining activity at 100 µM: 96%
[13]; [15]
  remaining activity at 100 µM: 82%
[14]
  residual kinase activity, VEG-FR: 48

## O=C(Nc1nc2ccc(F)cc2s1)c1ccccc1 [Compound 03-92]
[1]; [15]
  residual kinase activity, RSK1: 79
[2]; [15]
  residual kinase activity, PDK1: 91
[3]
  residual kinase activity, AMPK (hum): 76
[4]; [15]
  residual kinase activity, MARK3: 109
[5]; [15]
  residual kinase activity, DYRK1A: 11
[6]; [15]
  residual kinase activity, TBK1: 92
[7]; [15]
  residual kinase activity, PIM1: 69
[8]; [15]
  residual kinase activity, EF2K: 134
[9]; [15]
  residual kinase activity, HIPK2: 78
[10]; [15]
  residual kinase activity, IRAK4: 72
[11]; [15]
  residual kinase activity, Src: 74
[12]; [15]
  residual kinase activity, Lck: 102
[13]; [15]
  residual kinase activity, SYK: 117
[14]
  residual kinase activity, VEG-FR: 53

## CC(=O)Nc1nc2ccc(F)cc2s1 [Compound 03-94]
[1]; [15]
  residual kinase activity, RSK1: 85
[2]; [15]
  residual kinase activity, PDK1: 87
[3]
  residual kinase activity, AMPK (hum): 59
[4]; [15]
  residual kinase activity, MARK3: 96
[5]; [15]
  residual kinase activity, DYRK1A: 12
[6]; [15]
  residual kinase activity, TBK1: 91
[7]; [15]
  residual kinase activity, PIM1: 40
[8]; [15]
  residual kinase activity, EF2K: 96
[9]; [15]
  residual kinase activity, HIPK2: 27
[10]; [15]
  residual kinase activity, IRAK4: 44
[11]; [15]
  residual kinase activity, Src: 76
[12]; [15]
  residual kinase activity, Lck: 92
[13]; [15]
  residual kinase activity, SYK: 96
[14]
  residual kinase activity, VEG-FR: 18

## COc1ccc2sc(NC(=O)c3ccccc3)nc2c1 [Compound 03-95]
[1]; [15]
  residual kinase activity, RSK1: 64
[2]; [15]
  residual kinase activity, PDK1: 89
[3]
  residual kinase activity, AMPK (hum): 75
[4]; [15]
  residual kinase activity, MARK3: 106
[5]; [15]
  residual kinase activity, DYRK1A: 30
[6]; [15]
  residual kinase activity, TBK1: 100
[7]; [15]
  residual kinase activity, PIM1: 19
[8]; [15]
  residual kinase activity, EF2K: 115
[9]; [15]
  residual kinase activity, HIPK2: 74
[10]; [15]
  residual kinase activity, IRAK4: 57
[11]; [15]
  residual kinase activity, Src: 77
[12]; [15]
  residual kinase activity, Lck: 93
[13]; [15]
  residual kinase activity, SYK: 83
[14]
  residual kinase activity, VEG-FR: 65

## COc1ccc2nc(NC(=O)c3ccccc3)sc2c1 [Compound 03-98]
[1]; [15]
  residual kinase activity, RSK1: 74
[2]; [15]
  residual kinase activity, PDK1: 101
[3]
  residual kinase activity, AMPK (hum): 94
[4]; [15]
  residual kinase activity, MARK3: 72
[5]; [15]
  residual kinase activity, DYRK1A: 6
[6]; [15]
  residual kinase activity, TBK1: 95
[7]; [15]
  residual kinase activity, PIM1: 76
[8]; [15]
  residual kinase activity, EF2K: 108
[9]; [15]
  residual kinase activity, HIPK2: 41
[10]; [15]
  residual kinase activity, IRAK4: 46
[11]; [15]
  residual kinase activity, Src: 172
[12]; [15]
  residual kinase activity, Lck: 93
[13]; [15]
  residual kinase activity, SYK: 109
[14]
  residual kinase activity, VEG-FR: 37

## O=C(Nc1nc2ccc(C(F)(F)F)cc2s1)c1ccccc1 [Compound 03-99]
[1]; [15]
  residual kinase activity, RSK1: 92
[2]; [15]
  residual kinase activity, PDK1: 84
[3]
  residual kinase activity, AMPK (hum): 73
[4]; [15]
  residual kinase activity, MARK3: 106
[5]; [15]
  residual kinase activity, DYRK1A: 9
[6]; [15]
  residual kinase activity, TBK1: 96
[7]; [15]
  residual kinase activity, PIM1: 78
[8]; [15]
  residual kinase activity, EF2K: 99
[9]; [15]
  residual kinase activity, HIPK2: 90
[10]; [15]
  residual kinase activity, IRAK4: 70
[11]; [15]
  residual kinase activity, Src: 87
[12]; [15]
  residual kinase activity, Lck: 92
[13]; [15]
  residual kinase activity, SYK: 120
[14]
  residual kinase activity, VEG-FR: 28

## O=C(Nc1nc2cc(O)ccc2s1)c1ccccc1 [Compound 03-102]
[1]; [15]
  residual kinase activity, RSK1: 41
[2]; [15]
  residual kinase activity, PDK1: 74
[3]
  residual kinase activity, AMPK (hum): 49
[4]; [15]
  residual kinase activity, MARK3: 63
[5]; [15]
  residual kinase activity, DYRK1A: 6
[6]; [15]
  residual kinase activity, TBK1: 66
[7]; [15]
  residual kinase activity, PIM1: 14
[8]; [15]
  residual kinase activity, EF2K: 92
[9]; [15]
  residual kinase activity, HIPK2: 36
[10]; [15]
  residual kinase activity, IRAK4: 34
[11]; [15]
  residual kinase activity, Src: 30
[12]; [15]
  residual kinase activity, Lck: 98
[13]; [15]
  residual kinase activity, SYK: 80
[14]
  residual kinase activity, VEG-FR: 11

## COC(=O)c1cccc(C(=O)Nc2nc3ccc(C(F)(F)F)cc3s2)c1 [Compound 03-105, Methyl 3-((6-(trifluoromethyl)benzo[d]thiazol-2-yl)carbamoyl)benzoate]
[1]
  remaining activity at 100 µM: 87%
[2]
  remaining activity at 100 µM: 87%
[3]
  residual kinase activity, AMPK (hum): 71
[4]
  remaining activity at 100 µM: 103%
[5]
  remaining activity at 100 µM: 2%
[6]
  remaining activity at 100 µM: 101%
[7]
  remaining activity at 100 µM: 72%
[8]
  remaining activity at 100 µM: 108%
[9]
  remaining activity at 100 µM: 72%
[10]
  remaining activity at 100 µM: 78%
[11]
  remaining activity at 100 µM: 165%
[12]
  remaining activity at 100 µM: 99%
[13]
  remaining activity at 100 µM: 102%
[14]
  residual kinase activity, VEG-FR: 29
